Measured values reported in ChEMBL document CHEMBL1153152, “Amino acid based enantiomerically pure 3-substituted benzofused heterocycles: A new class of antithrombotic agents” (Bioorg Med Chem Lett, 2010).

Legend:
[1] = test system: Mus musculus; test: Toxicity in mouse assessed as increase in bleeding time at 30 mg/kg, po; type: organism-based; parameters: dose 30 mg/kg, route oral; conditions: in vivo
[2] = test system: Mus musculus; test: Antithrombotic activity in mouse assessed as protection against collagen and adrenaline-induced hind limb paralysis at 30 mg/kg, po for 60 mins; type: functional, Hindlimb

Row | SMILES | Activity [1] | Activity [2] [%]
1 | Cc1ccc(S(=O)(=O)N2C[C@H](Cc3ccc(OCc4ccccc4)cc3)N(S(=O)(=O)c3ccc(C)cc3)Cc3ccccc32)cc1 | 4% | 20
2 | Cc1ccc(S(=O)(=O)N2CCc3ccccc3OC[C@@H]2C)cc1 | Non-toxic | 40
3 | Cc1ccc(S(=O)(=O)N2CCc3ccccc3OC[C@@H]2Cc2ccc(O)cc2)cc1 | Non-toxic | 40
4 | COc1ccc2c(c1)CN(S(=O)(=O)c1ccc(C)cc1)[C@@H](CC(C)C)CO2 | 6% | 30
5 | Cc1ccc(S(=O)(=O)N2C[C@H](Cc3ccccc3)N(S(=O)(=O)c3ccc(C)cc3)CCc3ccccc32)cc1 | 22% | 20
6 | Cc1ccc(S(=O)(=O)N2Cc3ccccc3OC[C@@H]2CC(C)C)cc1 | 60% | 10
7 | COc1cccc2c1OC[C@H](Cc1ccc(O)cc1)N(S(=O)(=O)c1ccc(C)cc1)C2 | 24% | 45
8 | COc1ccc2c(c1)CN(S(=O)(=O)c1ccc(C)cc1)[C@@H](Cc1c[nH]c3ccccc13)CO2 | 12% | 20
9 | Cc1ccc(S(=O)(=O)N2C[C@H](Cc3ccc(OCc4ccccc4)cc3)N(S(=O)(=O)c3ccc(C)cc3)CCc3ccccc32)cc1 | Non-toxic | 30
10 | Cc1ccc(S(=O)(=O)N2Cc3ccccc3OC[C@@H]2C(C)C)cc1 | 22% | 20
11 | Cc1ccc(S(=O)(=O)N2Cc3ccccc3OC[C@@H]2Cc2ccc(O)cc2)cc1 | Non-toxic | 0
12 | Cc1ccc(S(=O)(=O)N2Cc3ccccc3OC[C@@H]2Cc2c[nH]c3ccccc23)cc1 | 33% | 40
13 | Cc1ccc(S(=O)(=O)N2Cc3ccccc3OC[C@@H]2Cc2ccccc2)cc1 | Non-toxic | 20
14 | Cc1ccc(S(=O)(=O)N2C[C@H](Cc3ccccc3)N(S(=O)(=O)c3ccc(C)cc3)Cc3ccccc32)cc1 | 13% | 20
15 | Cc1ccc(S(=O)(=O)N2Cc3ccccc3SC[C@@H]2Cc2ccc(OCc3ccccc3)cc2)cc1 | 28% | 10
16 | Cc1ccc(S(=O)(=O)N2Cc3ccccc3OC[C@@H]2C)cc1 | 25% | 20
17 | CC(=O)Oc1ccccc1C(=O)O [ASPIRIN] | 100% | 37
